Results published in US10822723B2, “Fusion protein crystal comprising a moiety” (Agency for Science, Technology and Research, priority 2015, dated 2020).

Experiments:
[1] = target: T1, GFP-Inka1:Flag-PAK4cat crystal (Homo sapiens, UniProt O96013); assay: Live cell imaging of GFP-Inka1:PAK4cat crystal growth; type: cell-based; settings: 5 μM, FIG. 6d
T1 construct: the kinase catalytic domain of human PAK4 (278-591); expressed in transfected cells
Procedure: The cells were plated at 50% confluence glass cover slips overnight: plasmid transfection used GFP-iBox-Pak4cat and FLAG-iBox-Pak4cat constructs at a ratio of 4:1 to promote crystal nucleation. The cover slips were transferred to a Chamlide magnetic chamber (Live cell instruments, Seoul, Korea) with 5% CO2 at 37° C. for live imaging on an Zeiss Axiovert 200M Live Cell Imaging with a 10× objective. We imaged multiple chosen regions for 8 hours at 6 min intervals. To measure crystal growth rate, we used instead a Nikon Eclipse Ti microscope equipped with spinning disk confocal attachment (Yokogawa CSU-22 module) to avoid photo-damage. The cells were imaged at 60×1.4 NA objective at 2 min intervals. For SIM and confocal imaging, cells were fixed in non-hardening mounting media (Vectashield). The slides were imaged by Delta vision OMX SIM with a 100×1.4 NA objective. Confocal imaging used an Olympus FV1000 upright system with 60×1.42NA objective. The 3D stacks were analyzed by IMARIS software.

PAK1 = PAK1 (Homo sapiens, UniProt Q13153); assay: In vitro kinase assay, phosphorylation of GST-Raf13 by 6His-PAK1 (activated); type: biochemical; settings: FIG. 1c
PAK1, sequence (Q13153 whole entry): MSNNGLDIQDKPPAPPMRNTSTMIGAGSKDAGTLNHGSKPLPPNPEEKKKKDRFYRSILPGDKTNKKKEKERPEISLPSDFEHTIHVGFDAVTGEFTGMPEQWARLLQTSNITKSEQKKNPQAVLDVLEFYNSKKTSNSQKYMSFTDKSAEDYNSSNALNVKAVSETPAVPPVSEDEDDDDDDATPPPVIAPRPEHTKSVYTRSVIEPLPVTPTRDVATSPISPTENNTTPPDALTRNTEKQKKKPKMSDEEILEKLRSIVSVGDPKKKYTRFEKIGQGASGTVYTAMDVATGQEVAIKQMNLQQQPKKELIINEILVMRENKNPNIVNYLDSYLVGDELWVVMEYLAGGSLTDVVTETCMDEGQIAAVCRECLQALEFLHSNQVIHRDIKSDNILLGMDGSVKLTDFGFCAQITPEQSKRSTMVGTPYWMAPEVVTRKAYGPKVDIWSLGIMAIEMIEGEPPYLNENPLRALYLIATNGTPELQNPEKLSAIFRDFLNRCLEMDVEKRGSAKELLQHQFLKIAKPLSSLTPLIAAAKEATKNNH
Procedure: (§1) Purified PAK1 or PAK4 (50 nM in 25-50 μl) were incubated with 10 μM GST-Raf1S338 peptide in 10 μM ATP (2 μCi of γ32P ATP) of kinase buffer (25 mM Hepes, pH 7.3, 0.1% Triton-X100, 50 mM KCl, 10 mM MgCl2, 1 mM DTT) at 30° C. for 20 min. Samples were analysed by SDS-polyacrylamide gel electrophoresis, or adsorption of the GST substrate mix onto PVDF membranes, followed by extensive washing to remove free γ32P-ATP. The synthetic peptides of 95% purity, as determined by HPLC and MS analyses (GenScript), were soluble in aqueous PBS. Stock solutions (10 mM) were quantified via calculated extinction coefficients and absorbance measurements at 280 nm and stored at −80° C. The diluted peptides were incubated at the indicated concentrations with the kinase on ice (10 min) before addition of γ32P ATP and subsequent incubation at 30° C. The synthetic peptide array (Jerini Biotools) was phosphorylated in situ as described previously.

PAK4cat = target: T2, PAK4cat (Homo sapiens, UniProt O96013); assay: In vitro kinase assay, phosphorylation of GST-Raf13 by PAK4cat; type: biochemical; settings: FIG. 1c
T2 construct: PAK1 (1-545) and PAK4 (286-591), respectively; 6His (N); made in house; host or cells: Escherichia coli BL21-CodonPlus(DE3)
T2 sequence (O96013 286-591): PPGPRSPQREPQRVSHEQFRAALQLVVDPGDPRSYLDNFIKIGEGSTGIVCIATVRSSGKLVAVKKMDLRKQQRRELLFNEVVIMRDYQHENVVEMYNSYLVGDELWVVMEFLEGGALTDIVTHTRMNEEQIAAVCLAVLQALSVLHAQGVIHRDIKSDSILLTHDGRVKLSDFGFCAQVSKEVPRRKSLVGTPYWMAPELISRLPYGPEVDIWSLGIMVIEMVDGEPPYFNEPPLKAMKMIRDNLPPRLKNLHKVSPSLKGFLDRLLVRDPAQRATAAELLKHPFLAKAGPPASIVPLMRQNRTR
Procedure: as §1

T1 sequence (O96013 278-591): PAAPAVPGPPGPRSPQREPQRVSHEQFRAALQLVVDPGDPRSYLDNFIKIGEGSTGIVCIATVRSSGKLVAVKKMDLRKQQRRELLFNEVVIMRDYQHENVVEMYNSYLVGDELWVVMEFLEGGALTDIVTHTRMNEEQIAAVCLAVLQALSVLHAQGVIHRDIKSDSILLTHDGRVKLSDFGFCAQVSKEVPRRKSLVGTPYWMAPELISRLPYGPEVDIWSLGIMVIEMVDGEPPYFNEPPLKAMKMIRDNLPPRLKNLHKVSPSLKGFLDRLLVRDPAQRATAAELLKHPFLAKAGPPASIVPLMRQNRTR

Row | Compound | GFP signal of co-crystals during the elongation phase ([1]; GFP-Inka1:HA-PAK4cat co-crystals) | crystal growth after drug addition ([1]; growing GFP-Inka1:Flag-PAK4cat crystal) | effect on PAK1 (PAK1) | PAK4cat inhibition in vitro (PAK4cat)
1 | Cc1nc(Nc2[nH]nc3c2CN(C(=O)N[C@H](CN(C)C)c2ccccc2)C3(C)C)c2sccc2n1 [PF-03758309] | depleted of GFP signal | slowed |  | 
2 | GST-iBox: recombinant 38 amino acid 'Inka box' (Inka1 residues 166-203) as GST fusion |  |  | does not affect | potent
